pEC50: −log10 of the molar value. Like-named read-outs stand apart in the source and are kept apart here.
Test system: 3D7 P. falciparum parasites
Test: Growth inhibition assay (72 h, LDH activity)
Assay type: cell-based, Plasmodium falciparum
Settings: for inhibition / pEC50: Plasmodium falciparum; for inhibition: 3D7, 3D7, read-out: NORMALISED (growth inhibition, LDH absorbance)
Procedure: Parasite growth assays with inhibitory compounds were performed as per[11] and are fully described in the Supplementary Information. […]
Growth inhibition assays. Synchronised ring-stage parasites (0.3-0.6% parasitemia, 2% haematocrit) were grown for 72 h in a serial-dilution of the compound under […]
and compound 4. Note that M-833 was first purchased from MolPort (MolPort -002-267-916) then made in-house at WEHI: the differences observed in EC50s across experiments are attributed to the different batches of M -833. For some experiments, 0, 0.25 or 2.5 mM of glucosamine (GlcN) was also added. Experiments were set up in technical duplicates or triplicates. Following a freeze -thaw cycle, lactate dehydrogenase (LDH) activity was assessed as an indicator of parasite growt h 5. 30 μL of parasite culture was incubated for 30 min in the dark with 75 μL Malstat mixture (0.1 M Tris pH 9.0, 20 g/L lactic acid, pH 7.5, 0.2% Triton-X100, 0.5 g/L acetylpyridine adenine dinucleotide (APAD, Sigma), 200 μg/mL nitroblue tetrazolium (NBT; Sigma), 1 μg/mL phenozine ethosulfate (PES; Sigma)). Absorbance was then measured at 650 nm, transformed using the formula below, plotted against the logarithm of the concentrations, and a non-linear regression (log(inhibitor) vs. response, variable slope) was calculated using GraphPad Prism to assess the half-inhibitory […]
Growth inhibition % = (1 − average(sample)− average(uRBC)) ∗ 100 […]
The DMSO samples were also used to assess growth of parasite in the presence of 0.25 and 2.5 mM GlcN (normalised by DMSO in 0 mM GlcN). […]

CC(C)(Nc1ccc(Cl)c(S(=O)(=O)N2CCOCC2)c1)C(=O)Nc1ccc(F)c(Cl)c1 [W-991]
(av-uRBC) / (DMSO-uRBC) x100 (3D7, conc. 0.685871 nM, Biological replicate 3 (2021-11-11)): 42.2112 | (av-uRBC) / (DMSO-uRBC) x100 (3D7, conc. 2.05761 nM, Biological replicate 1 (2021-10-25)): 12.3757 | (av-uRBC) / (DMSO-uRBC) x100 (3D7, conc. 2.05761 nM, Biological replicate 2 (2021-11-03)): 18.386 | (av-uRBC) / (DMSO-uRBC) x100 (3D7, conc. 2.05761 nM, Biological replicate 3 (2021-11-11)): 9.397 | (av-uRBC) / (DMSO-uRBC) x100 (3D7, conc. 6.17284 nM, Biological replicate 1 (2021-10-25)): 9.357 | (av-uRBC) / (DMSO-uRBC) x100 (3D7, conc. 6.17284 nM, Biological replicate 2 (2021-11-03)): 11.686 | (av-uRBC) / (DMSO-uRBC) x100 (3D7, conc. 6.17284 nM, Biological replicate 3 (2021-11-11)): 6.494 | (av-uRBC) / (DMSO-uRBC) x100 (3D7, conc. 18.5185 nM, Biological replicate 1 (2021-10-25)): 9.8 | (av-uRBC) / (DMSO-uRBC) x100 (3D7, conc. 18.5185 nM, Biological replicate 2 (2021-11-03)): 10.8954 | (av-uRBC) / (DMSO-uRBC) x100 (3D7, conc. 18.5185 nM, Biological replicate 3 (2021-11-11)): 6.2108 | (av-uRBC) / (DMSO-uRBC) x100 (3D7, conc. 55.5556 nM, Biological replicate 1 (2021-10-25)): 9.035 | (av-uRBC) / (DMSO-uRBC) x100 (3D7, conc. 55.5556 nM, Biological replicate 2 (2021-11-03)): 11.005 | (av-uRBC) / (DMSO-uRBC) x100 (3D7, conc. 55.5556 nM, Biological replicate 3 (2021-11-11)): 5.108 | (av-uRBC) / (DMSO-uRBC) x100 (3D7, conc. 166.667 nM, Biological replicate 1 (2021-10-25)): 9.2782 | (av-uRBC) / (DMSO-uRBC) x100 (3D7, conc. 166.667 nM, Biological replicate 2 (2021-11-03)): 9.854 | (av-uRBC) / (DMSO-uRBC) x100 (3D7, conc. 166.667 nM, Biological replicate 3 (2021-11-11)): 4.764 | (av-uRBC) / (DMSO-uRBC) x100 (3D7, conc. 500 nM, Biological replicate 1 (2021-10-25)): 10.7733 | (av-uRBC) / (DMSO-uRBC) x100 (3D7, conc. 500 nM, Biological replicate 2 (2021-11-03)): 10.7389 | (av-uRBC) / (DMSO-uRBC) x100 (3D7, conc. 500 nM, Biological replicate 3 (2021-11-11)): 3.985 | improvement in parasite activity on replacing the aryl oxy of compound 3 with an amino group (EC50 based): 20 fold | inhibition (0.25 mM GlcN, dilution point 1 of 10, starting concentration 100 nM): 94.1% | inhibition (0.25 mM GlcN, dilution point 2 of 10 from starting concentration 100 nM): 94.3% | inhibition (0.25 mM GlcN, dilution point 3 of 10 from starting concentration 100 nM): 95.3% | inhibition (0.25 mM GlcN, dilution point 4 of 10 from starting concentration 100 nM): 91.5% | inhibition (2.5 mM GlcN, dilution point 1 of 10, starting concentration 100 nM): 89.4% | inhibition (2.5 mM GlcN, dilution point 2 of 10 from starting concentration 100 nM): 91.3% | inhibition (2.5 mM GlcN, dilution point 3 of 10 from starting concentration 100 nM): 88.4% | inhibition (2.5 mM GlcN, dilution point 4 of 10 from starting concentration 100 nM): 86.4% | inhibition (2.5 mM GlcN, dilution point 5 of 10 from starting concentration 100 nM): 65.7% | inhibition (2.5 mM GlcN, dilution point 6 of 10 from starting concentration 100 nM): 40.2% | pEC50 (3D7, 72 h, Supplementary Table 1, 3D7, 72 h, read-out: EC50): 9.14 | pEC50 (3D7, Fig 4C, 3D7, 0 mM GlcN, n = 3, read-out: EC50 W-991 (95% confidence interval)): 9.03 | pEC50 (3D7, Fig 4C, 3D7, 0.25 mM GlcN, n = 3, read-out: EC50 W-991 (95% confidence interval)): 9.04 | pEC50 (3D7, Fig 4C, 3D7, 2.5 mM GlcN, n = 3, read-out: EC50 W-991 (95% confidence interval)): 9.10 | pEC50 (3D7, text on structure activity relationship (Fig 4A), read-out: EC50, antiparasitic activity): 8.15 | effect of GlcN addition on EC50 (control 3D7, Fig 4C): did not change the EC50
